Data published in publication PMC5304334, “Antifouling potential of Nature-inspired sulfated compounds” (Scientific Reports, 2017).

Assays:
[1] = tested on: Mytilus galloprovincialis plantigrades; assay: Anti-settlement bioassay with mussel plantigrades (effectiveness and mortality); type: in vivo; conditions: 250 and 50 μM, 15 h; versus negative control, p < 0.05 Dunnett
Method: M. galloprovincialis juvenile (0.5 cm shell length approximately) aggregates were collected from mussel beds from the intertidal rocky shore, during low neap tides at Memória beach, Matosinhos, Portugal (41°13′59″N; 8°43′28″W), and immediately transported to the laboratory. M. galloprovincialis plantigrade post-larvae (0.5–2 mm) were screened among the small mussel aggregates in a binocular magnifier (Olympus SZX2-ILLT), gently washed with filtered seawater to remove organic debris and sand particles and isolated in a petri dish with filtered seawater immediately before the bioassays.
For the screening bioassay, competent M. galloprovincialis plantigrades (showing exploring behavior, ie, moving their foot searching for the appropriate substrate to settle) were selected and exposed to the series of sulfated compounds 1–13 at two concentrations (250 and 50 μM) in 24-well microplates for 15 h, at 18 ± 1 °C, in the darkness. Bioassays time frame was selected based on preliminary bioassays to ensure that the response measured is reflecting the compounds effect. Test solutions were prepared in filtered seawater (previously treated by UV light, and carbon filters and mechanically filtered with […] filter before use) and obtained by dilution of the compounds stock solutions (50 mM) in ultra-pure water. Four well replicates were used per condition with five plantigrades per well and 2.5 mL of test solution. A negative control, with ultra-pure water was included in all bioassays, as well as a positive control with 5 μM CuSO4 (a potent AF agent). At the end of the exposure period, the anti-settlement activity was determined by the presence/absence of byssal threads produced by each individual efficiently attached for all the conditions tested.
(§1) Data from the anti-settlement and antibacterial screenings were analyzed using a one-way analysis of variance (ANOVA) followed by a Dunnett test against the control (p < 0.05). Semi-maximum response concentration that inhibited 50% larval settlement (EC50), semi-maximum response concentration that inhibited 20% bacterial growth (EC20) and the median lethal dose (LC50) for each bioactive compound were assessed using Probit regression analysis. Pearson Goodness-of-fit (Chi-Square) significance was considered at p < 0.05 for all analyses, and 95% lower and upper confidence limits [95% LCL; UCL] were presented. Therapeutic ratio (LC50/EC50) was used to evaluate the effectiveness vs toxicity of compounds[31][53][54]. The software IBM SPSS Statistics 21 was used for statistical analysis.

Vibrio harveyi CECT 525 = assay: Antibacterial growth inhibition, Vibrio harveyi; type: cell-based; conditions: V. harveyi
Method: (§2) Antibacterial activities were evaluated against four strains of marine biofilm-forming bacteria Cobetia marina CECT 4278, Vibrio harveyi CECT 525, Halomonas aquamarina CECT 5000, and Pseudoalteromonas atlantica CECT 570, all from Spanish Type Culture Collection (CECT). The bacteria were inoculated and incubated for 24 h at 26 °C in marine broth (Difco) at an initial density of 0.1 (OD600) in 96 well flat-bottom microtiter plates. Sulfated compounds stock solutions were prepared in ultra-pure water. […] Bacterial growth inhibition in the presence of the test compounds was measured in quadriplicate by reading of optical density at 600 nm using a microplate reader (Biotek Synergy HT, Vermont, USA). Marine broth with ultra-pure water and penicilin-streptomycin-neomycin stabilized solution were used as negative (B) and positive (C) controls, respectively.
(§3) For the determination of maximal inhibitory concentrations (IC) a serial dilution of the stock solution was used to obtain final concentrations from 100 μM to 0.75 μM, the same range applied in antifouling bioassays plus one lower concentration, and the same procedure was applied.
Data from the anti-settlement and antibacterial screenings were analyzed using a one-way analysis of variance (ANOVA) followed by a Dunnett test against the control (p < 0.05). […]

[2] = tested on: Halomonas aquamarina CECT 5000; assay: Antibacterial growth inhibition, Halomonas aquamarina; type: cell-based; conditions: H. aquamarina
Method: as §2, §3, §1

With `O=c1c(O[C@@H]2O[C@H](COS(=O)(=O)O)[C@@H](OS(=O)(=O)O)[C@H](OS(=O)(=O)O)[C@H]2OS(=O)(=O)O)c(-c2ccccc2)oc2cc(O[C@@H]3O[C@H](COS(=O)(=O)O)[C@@H](OS(=O)(=O)O)[C@H](OS(=O)(=O)O)[C@H]3OS(=O)(=O)O)ccc12` [Compound 4, 3,7-di(β-D-glucopyranosyl)flavone persulfate] the “Anti-settlement activity in screening (result in words)” value [1] was “did not show notable activity”, the “EC20, minimum concentration that inhibited 20% of bacterial growth” value (Vibrio harveyi CECT 525) was >100 µM and the “Bacterial growth inhibition in screening” value ([2]; 12.5 μM, 24 h, 26 °C) was “significant inhibitory activity”. For the same compound, the “Bacterial growth inhibition at all the concentrations tested” value ([2]; 0.75–100 μM) was “less than 30%”, the inhibition at 12.5 µM ([2]; Vreelandella aquamarina, CECT5000, 12.5 μM) was 15.3% and the inhibition at 100 µM ([2]; Vreelandella aquamarina, CECT5000, 100 μM) was 26.5%.
